Experimental data reported in the NIST ThermoML archive (doi:10.1016/j.jct.2014.05.016).

Assay: xn = mol fraction of the nth substance listed
Details: 100 kPa, Liquid; for mass density: Vibrating tube method; for viscosity: Concentric cylinders viscometry

CCCC[n+]1ccccc1.F[B-](F)(F)F [1-butylpyridinium tetrafluoroborate] + CCCCn1cc[n+](C)c1.F[B-](F)(F)F
Details	mass density [kg/m3]	viscosity [mPa·s]
318.15 K, x2 = 0	1199.4	–
318.15 K, x2 = 0.1007	1198.1	–
318.15 K, x2 = 0.2004	1197	–
318.15 K, x2 = 0.3001	1195.7	–
318.15 K, x2 = 0.4004	1194.4	–
318.15 K, x2 = 0.5009	1193.1	–
318.15 K, x2 = 0.6004	1191.8	–
318.15 K, x2 = 0.7013	1190.6	–
318.15 K, x2 = 0.8007	1189.1	–
318.15 K, x2 = 0.8987	1187.8	–
323.15 K, x2 = 0	1196	47.29
323.15 K, x2 = 0.1007	1194.7	–
323.15 K, x2 = 0.1009	–	46.21
323.15 K, x2 = 0.2004	1193.5	–
323.15 K, x2 = 0.2005	–	44.95
323.15 K, x2 = 0.3001	1192.3	–
323.15 K, x2 = 0.3003	–	43.7
323.15 K, x2 = 0.4001	–	42.46
323.15 K, x2 = 0.4004	1190.9	–
323.15 K, x2 = 0.4999	–	41.32
323.15 K, x2 = 0.5009	1189.6	–
323.15 K, x2 = 0.6004	1188.3	–
323.15 K, x2 = 0.6007	–	40.18
323.15 K, x2 = 0.7004	–	39.01
323.15 K, x2 = 0.7013	1187	–
323.15 K, x2 = 0.8001	–	37.96
323.15 K, x2 = 0.8007	1185.6	–
323.15 K, x2 = 0.8987	1184.3	–
323.15 K, x2 = 0.8998	–	36.87
328.15 K, x2 = 0	1192.6	38.71
328.15 K, x2 = 0.1007	1191.3	–
328.15 K, x2 = 0.1009	–	37.89
328.15 K, x2 = 0.2004	1190.1	–
328.15 K, x2 = 0.2005	–	36.94
328.15 K, x2 = 0.3001	1188.8	–
328.15 K, x2 = 0.3003	–	36
328.15 K, x2 = 0.4001	–	35.04
328.15 K, x2 = 0.4004	1187.5	–
328.15 K, x2 = 0.4999	–	34.16
328.15 K, x2 = 0.5009	1186.2	–
328.15 K, x2 = 0.6004	1184.9	–
328.15 K, x2 = 0.6007	–	33.29
328.15 K, x2 = 0.7004	–	32.42
328.15 K, x2 = 0.7013	1183.5	–
328.15 K, x2 = 0.8001	–	31.6
328.15 K, x2 = 0.8007	1182.1	–
328.15 K, x2 = 0.8987	1180.8	–
328.15 K, x2 = 0.8998	–	30.76
333.15 K, x2 = 0	1189.2	32.12
333.15 K, x2 = 0.1007	1188	–
333.15 K, x2 = 0.1009	–	31.48
333.15 K, x2 = 0.2004	1186.7	–
333.15 K, x2 = 0.2005	–	30.81
333.15 K, x2 = 0.3001	1185.4	–
333.15 K, x2 = 0.3003	–	30.05
333.15 K, x2 = 0.4001	–	29.3
333.15 K, x2 = 0.4004	1184	–
333.15 K, x2 = 0.4999	–	28.66
333.15 K, x2 = 0.5009	1182.7	–
333.15 K, x2 = 0.6004	1181.4	–
333.15 K, x2 = 0.6007	–	27.94
333.15 K, x2 = 0.7004	–	27.27
333.15 K, x2 = 0.7013	1180	–
333.15 K, x2 = 0.8001	–	26.68
333.15 K, x2 = 0.8007	1178.6	–
333.15 K, x2 = 0.8987	1177.3	–
333.15 K, x2 = 0.8998	–	26.05
338.15 K, x2 = 0	1185.8	26.98
338.15 K, x2 = 0.1007	1184.6	–
338.15 K, x2 = 0.1009	–	26.47
338.15 K, x2 = 0.2004	1183.3	–
338.15 K, x2 = 0.2005	–	25.93
338.15 K, x2 = 0.3001	1182	–
338.15 K, x2 = 0.3003	–	25.37
338.15 K, x2 = 0.4001	–	24.83
338.15 K, x2 = 0.4004	1180.6	–
338.15 K, x2 = 0.4999	–	24.25
338.15 K, x2 = 0.5009	1179.3	–
338.15 K, x2 = 0.6004	1178	–
338.15 K, x2 = 0.6007	–	23.7
338.15 K, x2 = 0.7004	–	23.18
338.15 K, x2 = 0.7013	1176.6	–
338.15 K, x2 = 0.8001	–	22.68
338.15 K, x2 = 0.8007	1175.2	–
338.15 K, x2 = 0.8987	1173.9	–
338.15 K, x2 = 0.8998	–	22.23
343.15 K, x2 = 0	1182.5	22.97
343.15 K, x2 = 0.1007	1181.2	–
343.15 K, x2 = 0.1009	–	22.54
343.15 K, x2 = 0.2004	1179.9	–
343.15 K, x2 = 0.2005	–	22.07
343.15 K, x2 = 0.3001	1178.6	–
343.15 K, x2 = 0.3003	–	21.64
343.15 K, x2 = 0.4001	–	21.16
343.15 K, x2 = 0.4004	1177.3	–
343.15 K, x2 = 0.4999	–	20.75
343.15 K, x2 = 0.5009	1175.9	–
343.15 K, x2 = 0.6004	1174.5	–
343.15 K, x2 = 0.6007	–	20.32
343.15 K, x2 = 0.7004	–	19.9
343.15 K, x2 = 0.7013	1173.2	–
343.15 K, x2 = 0.8001	–	19.49
343.15 K, x2 = 0.8007	1171.8	–
343.15 K, x2 = 0.8987	1170.4	–
343.15 K, x2 = 0.8998	–	19.09
